{
  "source": "patent US20050250819A1",
  "about": "(priority 2004, published 2005)",
  "data": [
    {"system": "Type III protein secretion of the chimeric SopE‘-’Bla polypeptide (SPI1 type III protein secretion system)", "assay": "Primary assay: Type III protein secretion of the chimeric SopE'-'Bla polypeptide by Salmonella enterica", "type": "cell-based", "conditions": "read-out: SopE IC50(μM)", "description": "Primary assay: Type III protein secretion of the chimeric SopE‘-’Bla polypeptide by Salmonella enterica. This procedure is a cell-based assay that measures the type III-dependent secretion by Salmonella enterica of a plasmid-encoded chimeric polypeptide whose synthesis can be regulated, and which is endowed with an enzymatic activity that can be monitored colorimetrically by hydrolysis of a substrate that is unable to penetrate into the bacterial cytoplasm within the time constraints of the reaction. Thus, the colormetric reaction is not influenced by SopE‘-’Bla polypeptide in the bacterial cytplasm. Instead, it effectively measures the amount of polypeptide that has been secreted from the S. enterica cytoplasm to the extracellular medium via type III system protein secretion.\nThe SopE‘-’Bla recombinant polypeptide consists of two functionally distinct domains spliced together. The N-terminus domain is encoded by a polynucleotide region specifying the signal for type III secretion of the SopE polypeptide of S. enterica, an effector of the SPI1 type III protein secretion system. The C-terminus domain of SopE‘-’Bla consists of a 263 amino acid peptide sequence that corresponds to the TEM-1 β-lactamase expressed by plasmid pBR322 but without its N-terminal signal sequence. The TEM-1 β-lactamase part of the SopE‘-’Bla chimeric polypeptide is used as a reporter enzyme. It is capable of hydrolyzing nitrocefin resulting in a product whose accumulation can be monitored by colorimetric detection. The secretion of the SopE‘-’Bla chimeric polypeptide from the cytoplasm to the extracellular medium is dependent on type III protein secretion.\nFor this procedure, cells grown under conditions known to favor a functional SPI1 secretion system are induced for expression of the SopE‘-’Bla protein and grown either in the presence or in the absence of putative inhibitors for determined time. Nitrocefin is then added to the various cultures and its hydrolysis are used for quantitation. An inhibitor of Type III protein secretion is generally a compound that reduces the signal of the enzymatic reaction by decreasing the amount of SopE‘-’Bla secreted into the extracellular medium.", "units": {"IC50": "µM"}, "values": [
      {"compound": "O=C(N[C@H](COCc1ccccc1)C(=O)O)/C(=C\\c1ccc(C(F)(F)F)cc1)NC(=O)c1cc2ccccc2s1", "note": "[Compound 65, (R)-2-[2-[(Benzo[b]thiophene-2-carbonyl)amino]-3-(4-trifluoromethylphenyl)-acryloylamino]-3-benzyloxypropionic acid]", "IC50": 88},
      {"compound": "O=C(N[C@H](CSCc1ccccc1)C(=O)O)/C(=C\\c1ccc(Cl)c(Cl)c1)NC(=O)c1cc2ccccc2s1", "note": "[Compound 67, (S)-2-[2-[(Benzo[b]thiophene-2-carbonyl)amino]-3-(3,4-dichlorophenyl)-acryloylamino]-3-benzylsulfanylpropionic acid]", "IC50": 27},
      {"compound": "Cn1cc(C(=O)N/C(=C/c2cccc(C(F)(F)F)c2)C(=O)N[C@H](COCc2ccccc2)C(=O)O)c2ccccc21", "note": "[Compound 70, (R)-3-Benzyloxy-2-[2-[(1-methyl-1H-indole-3-carbonyl)amino]-3-(3-trifluoromethylphenyl)acryloylamino]propionic acid]", "IC50": 86.3},
      {"compound": "CC(C)(S)C(NC(=O)/C(=C\\c1ccc(Cl)c(Cl)c1)NC(=O)c1ccc(-c2ccccc2)cc1)C(=O)O", "note": "(stereo not shown) [Compound 92]", "IC50": 5},
      {"compound": "O=C(N[C@@H](CSCc1ccccc1)C(=O)O)/C(=C\\c1ccc(OCc2ccncc2)cc1)NC(=O)c1ccc(C(F)(F)F)cc1", "note": "[Compound 59, (R)-3-Benzylsulfanyl-2-[3-[4-(pyridin-4-yl-methoxy)phenyl]-2-(4-trifluoromethyl-benzoylamino)acryloylamino]propionic acid]", "IC50": 73.4},
      {"compound": "O=C(N[C@@H](Cc1ccc(Cl)cc1)C(=O)O)/C(=C\\c1cccc(C(F)(F)F)c1)NC(=O)C1CCN(c2nccc(C(F)(F)F)n2)CC1", "note": "[Compound 79, (S)-3-(4-Chlorophenyl)-2-(3-(3-trifluoromethylphenyl)-2-{[1-(4-trifluoromethyl-pyrimidin-2-yl)piperidine-4-carbonyl]amino}acryloylamino)propionic acid]", "IC50": 25.9},
      {"compound": "Cc1ccc(C(=O)N/C(=C/c2ccc(Cl)c(Cl)c2)C(=O)NC(C(=O)O)C(C)(C)S)cc1", "note": "(stereo not shown) [Compound 161]", "IC50": 56},
      {"compound": "O=C(NC(Cc1ccc(Cl)cc1)C(=O)O)/C(=C\\c1ccc(Cl)c(C(F)(F)F)c1)CC(=O)c1ccc(-c2ccccc2)cc1", "note": "(stereo not shown) [Compound 5, 2-[2-(2-Biphenyl-4-yl-2-oxoethyl)-3-(4-chloro-3-trifluoromethylphenyl)-acryloylamino]-3-(4-chlorophenyl)propionic acid]", "IC50": 0.8},
      {"compound": "O=C(N[C@H](CSCc1ccccc1)C(=O)O)/C(=C\\c1ccc(C(F)(F)F)cc1)NC(=O)c1cc2ccccc2s1", "note": "[Compound 64, (S)-2-[2-[(Benzo[b]thiophene-2-carbonyl)amino]-3-(4-trifluoromethylphenyl)-acryloylamino]-3-benzylsulfanylpropionic acid]", "IC50": 49.4},
      {"compound": "CC(C)(S)C(NC(=O)/C(=C\\c1ccc(-c2ccccc2)cc1)NC(=O)c1ccc(C(F)(F)F)cc1)C(=O)O", "note": "(stereo not shown) [Compound 90]", "IC50": 7.8},
      {"compound": "NC(=O)C[C@@H](NC(=O)/C(=C\\c1ccc(-c2ccccc2)cc1)NC(=O)c1ccc(C(F)(F)F)cc1)C(=O)O", "note": "[Compound 152]", "IC50": 100},
      {"compound": "O=C(NN(Cc1cccc(Oc2ccccc2)c1)C(=O)N[C@@H](CSCc1ccccc1)C(=O)O)c1ccc(C(F)(F)F)cc1", "note": "[Compound 9, 4-Trifluoromethylbenzoic acid-N′-[(3-phenoxyphenyl)methyl]-N′-[[[(2-benzylthio)-1-carboxyethyl]amino]carbonyl]hydrazide]", "IC50": 15},
      {"compound": "Cc1ccc(/C=C(/NC(=O)c2ccc(-c3ccccc3)cc2)C(=O)NC(C(=O)O)C(C)(C)S)s1", "note": "(stereo not shown) [Compound 93]", "IC50": 1.4},
      {"compound": "CC(C)(S)C(NC(=O)/C(=C\\c1ccc(C(F)(F)F)cc1)NC(=O)c1ccc(-c2ccccc2)cc1)C(=O)O", "note": "(stereo not shown) [Compound 124]", "IC50": 16},
      {"compound": "O=C(N[C@@H](COCc1ccccc1)C(=O)O)C(=Cc1ccc(Oc2ccccc2)cc1)NC(=O)c1ccc(C(F)(F)F)cc1", "note": "[Compound 15, (S)-3-Benzyloxy-2-[3-(4-phenoxyphenyl)-2-(4-trifluoromethylbenzoylamino)-acryloylamino]propionic acid]", "IC50": 11},
      {"compound": "O=C(N[C@@H](Cc1ccc(Cl)cc1)C(=O)O)/C(=C\\c1ccc(OC(F)(F)F)cc1)NC(=O)C1CCN(c2nccc(C(F)(F)F)n2)CC1", "note": "[Compound 85, (S)-3-(4-Chlorophenyl)-2-(3-(4-trifluoromethoxyphenyl)-2-{[1-(4-trifluoromethyl-pyrimidin-2-yl)piperidine-4-carbonyl]amino}acryloylamino)propionic acid]", "IC50": 35.2},
      {"compound": "O=C(NN(Cc1ccc(Oc2ccccc2)cc1)C(=O)N[C@@H](CSCc1ccccc1)C(=O)O)c1ccc(C(F)(F)F)cc1", "note": "[Compound 12, 4-Trifluoromethylbenzoic acid-N′-[(4-phenoxyphenyl)methyl]-N′-[[[(2-benzylthio)-1-carboxyethyl]amino]carbonyl]hydrazide]", "IC50": 12.5},
      {"compound": "O=C(N[C@@H](CSCc1ccccc1)C(=O)O)/C(=C\\c1ccccc1Cl)NC(=O)c1ccc(C(F)(F)F)cc1", "note": "[Compound 151]", "IC50": 50},
      {"compound": "O=C(O)C[C@H](Cc1ccc(Cl)cc1)NC(=O)/C(=C\\c1ccc(-c2ccccc2)cc1)NC(=O)c1ccc(C(F)(F)F)cc1", "note": "[Compound 13, (S)-3-[3-Biphenyl-4-yl-2-(4-trifluoromethylbenzoylamino)acryloylamino]-4-(4-chlorophenyl)butyric acid]", "IC50": 5.2},
      {"compound": "O=C(N[C@@H](Cc1ccc(Cl)cc1)C(=O)O)/C(=C\\c1ccc(Br)cc1)NC(=O)C1CCN(c2nccc(C(F)(F)F)n2)CC1", "note": "[Compound 82, (S)-2-(3-(4-Bromophenyl)-2-{[1-(4-trifluoromethylpyrimidin-2-yl)piperidine-4-carbonyl]amino}acryloylamino)-3-(4-chlorophenyl)propionic acid]", "IC50": 27.8},
      {"compound": "Cc1ccc(/C=C(/NC(=O)c2ccc(-c3ccccc3)cc2)C(=O)NC(C(=O)O)C(C)(C)S)o1", "note": "(stereo not shown) [Compound 94]", "IC50": 55.2},
      {"compound": "CCc1ccc(/C=C(/NC(=O)c2ccc(-c3ccccc3)cc2)C(=O)NC(C(=O)O)C(C)(C)S)cc1", "note": "(stereo not shown) [Compound 125]", "IC50": 20},
      {"compound": "O=C(NC(COCc1ccccc1)C(=O)O)/C(=C\\c1cccc(Oc2ccc(Cl)cc2)c1)NC(=O)c1ccc(C(F)(F)F)cc1", "note": "(stereo in doubt) [Compound 31, (S)-3-Benzyloxy-2-[3-[3-(4-chlorophenoxy)phenyl]-2-(4-trifluoromethyl-benzoylamino)acryloylamino]propionic acid]", "IC50": 7.7},
      {"compound": "O=C(O)CCCCNC(=O)/C(=C\\c1ccc(-c2ccccc2)cc1)NC(=O)c1ccc(C(F)(F)F)cc1", "note": "[Compound 132]", "IC50": 42},
      {"compound": "O=C(NC(=Cc1cccc(C(F)(F)F)c1)C(=O)N1C(c2ccc(F)cc2)SC[C@H]1C(=O)O)c1ccc(-c2ccccc2)cc1", "note": "(stereo partly drawn) [Compound 61, (4R)-3-[2-[(Biphenyl-4-carbonyl)amino]-3-(3-trifluoromethylphenyl)acryloyl]-2-(4-fluorophenyl)thiazolidine-4-carboxylic acid]", "IC50": 3.7},
      {"compound": "O=C(N[C@@H](COCc1ccccc1)C(=O)O)/C(=C\\c1ccc(Cl)c(Cl)c1)NC(=O)c1ccc(Cl)cc1", "note": "[Compound 29, (S)-3-Benzyloxy-2-[2-(4-chlorobenzoylamino)-3-(3,4-dichlorophenyl)-acryloylamino]propionic acid]", "IC50": 70},
      {"compound": "O=C(N/C(=C/c1cccc(C(F)(F)F)c1)C(=O)N1CCCCC1C(=O)O)c1ccc(C(F)(F)F)cc1", "note": "(stereo not shown) [Compound 118]", "IC50": 100},
      {"compound": "O=C(N/C(=C/c1ccc(Cl)c(Cl)c1)C(=O)N1CCCCC1C(=O)O)c1ccc(-c2ccccc2)cc1", "note": "(stereo not shown) [Compound 107]", "IC50": 8},
      {"compound": "O=C(O)CCCCNC(=O)/C(=C\\c1ccc(Cl)c(Cl)c1)NC(=O)c1ccc(-c2ccccc2)cc1", "note": "[Compound 113]", "IC50": 14.5},
      {"compound": "CC(C)(S)C(NC(=O)/C(=C\\c1ccc(Cl)c(Cl)c1)NC(=O)c1ccccc1)C(=O)O", "note": "(stereo not shown) [Compound 115]", "IC50": 61.6},
      {"compound": "O=C(N[C@@H](CSCc1ccccc1)C(=O)O)/C(=C\\c1cccc2ccccc12)NC(=O)c1ccc(C(F)(F)F)cc1", "note": "[Compound 3, (R)-3-Benzylsulfanyl-2-[3-naphthalen-1-yl-2-(4-trifluoromethylbenzoylamino)-acryloylamino]propionic acid]", "IC50": 30.3},
      {"compound": "O=C(N[C@@H](CSCc1ccccc1)C(=O)O)/C(=C\\c1ccc(Br)cc1)NC(=O)C1CCN(c2nccc(C(F)(F)F)n2)CC1", "note": "[Compound 81, (R)-3-Benzylsulfanyl-2-(3-(4-bromophenyl)-2-{[1-(4-trifluoromethylpyrimidin-2-yl)piperidine-4-carbonyl]amino}acryloylamino)propionic acid]", "IC50": 58.1},
      {"compound": "O=C(N/C(=C/c1ccc(-c2ccccc2)cc1)C(=O)N1CCCCC1C(=O)O)c1ccc(C(F)(F)F)cc1", "note": "(stereo not shown) [Compound 147]", "IC50": 60},
      {"compound": "CC(C)(S)C(NC(=O)/C(=C\\c1cccc(Oc2ccccc2)c1)NC(=O)c1ccc(-c2ccccc2)cc1)C(=O)O", "note": "(stereo not shown) [Compound 127]", "IC50": 10}
    ]}
  ]
}
